Patent publication US20100227853A1, “INHIBITORS OF CYCLIC AMP PHOSPHODIESTERASES” (Trustees of Boston College, priority 2008, published 2010)
Read-outs that look alike come from different tables or passages of the source. Values belong to the compound of their own block, whether it stands above or below them.

Key:
[1] = biological target: PDE4B2 (Homo sapiens, UniProt Q07343); experiment: 5FOA growth assay in fission yeast strain expressing PDE4B2; format: cell-based; set-up: targets used in the assays are full-length proteins (as opposed to simply the catalytic domain); expressed in transfected cells; host or cells: Schizosaccharomyces pombe; conditions: OD600 0.6
Chain of PDE4B2 (Q07343 1-564 isoform Q07343-2, species assumed): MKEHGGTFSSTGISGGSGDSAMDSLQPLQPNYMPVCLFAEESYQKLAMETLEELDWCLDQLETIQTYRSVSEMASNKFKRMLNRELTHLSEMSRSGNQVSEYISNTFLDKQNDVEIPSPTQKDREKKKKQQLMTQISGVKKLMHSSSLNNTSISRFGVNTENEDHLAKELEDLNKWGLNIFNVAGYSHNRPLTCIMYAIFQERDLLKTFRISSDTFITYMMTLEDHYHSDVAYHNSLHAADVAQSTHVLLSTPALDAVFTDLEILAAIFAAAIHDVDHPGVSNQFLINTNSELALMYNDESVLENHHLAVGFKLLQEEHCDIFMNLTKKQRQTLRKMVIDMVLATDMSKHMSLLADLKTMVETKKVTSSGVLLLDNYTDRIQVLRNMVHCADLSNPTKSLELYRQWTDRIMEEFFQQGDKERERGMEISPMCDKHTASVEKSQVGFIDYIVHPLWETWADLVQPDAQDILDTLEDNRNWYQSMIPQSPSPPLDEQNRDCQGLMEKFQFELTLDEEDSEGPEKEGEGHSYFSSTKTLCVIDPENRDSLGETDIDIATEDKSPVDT
Procedure: (§1) Cells were pregrown in EMM medium [MP Biomedicals (Solon, Ohio), 3% glucose, filter-sterilized to avoid carmelization, which would introduce variability into the optical density of the medium] containing from 0 mM to 2.5 mM cAMP (or either 0.5 mM or 1.0 mM cGMP). This was to repress expression of the fbp1-ura4 reporter prior to exposure of cells to 5FOA medium. Cells were grown at 30° C. to exponential phase (approximately 10^7 cells/ml). […] Starting cell concentrations ranged from 0.5×10^5 to 4×10^5 cells/ml depending on the screening strain. […] Other positive control dishes contained 5 mM cAMP in the 5FOA medium for PDEs that lack appropriate control compounds. Cultures were grown for 48 hours at 30° C., sealed in an airtight container with moist paper towels to prevent evaporation. Optical densities (OD600) of cultures were measured using a microplate reader. Bioinformatic analysis of the results to determine composite Z scores was performed as previously described (1, 3).

[2] = biological target: T1, PDE4D2 (Homo sapiens, UniProt Q08499); experiment: 5FOA growth assay in fission yeast strain expressing PDE4D2; format: cell-based; conditions: OD600 0.6; read-out: ED50 for 5FOA growth assays, PDE4D2
T1 construct: targets used in the assays are full-length proteins (as opposed to simply the catalytic domain); expressed in transfected cells; host or cells: Schizosaccharomyces pombe
T1 sequence (Q08499 303-809): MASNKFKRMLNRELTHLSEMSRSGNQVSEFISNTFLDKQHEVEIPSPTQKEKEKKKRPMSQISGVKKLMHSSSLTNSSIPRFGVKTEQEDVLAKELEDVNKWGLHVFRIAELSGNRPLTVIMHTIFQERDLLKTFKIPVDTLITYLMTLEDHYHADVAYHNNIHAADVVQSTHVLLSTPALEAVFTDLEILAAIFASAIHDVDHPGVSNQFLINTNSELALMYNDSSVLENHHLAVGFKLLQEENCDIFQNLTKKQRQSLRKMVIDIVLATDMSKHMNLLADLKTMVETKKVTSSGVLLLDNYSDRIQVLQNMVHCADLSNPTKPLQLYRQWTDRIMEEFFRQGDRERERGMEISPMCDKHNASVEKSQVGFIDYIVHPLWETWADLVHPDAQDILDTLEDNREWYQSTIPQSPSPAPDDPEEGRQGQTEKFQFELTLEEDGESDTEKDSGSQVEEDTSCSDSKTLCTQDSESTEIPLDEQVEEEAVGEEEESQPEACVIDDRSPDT
Procedure: as §1

[3] = biological target: T1, PDE4D2; experiment: cAMP response in yeast strain expressing PDE4D2; format: cell-based
[4] = biological target: T2, PDE4B3 (Mus musculus, UniProt Q8VBU5); experiment: cAMP response in yeast strain expressing PDE4B3; format: cell-based, Murine
T2 construct: targets used in the assays are full-length proteins (as opposed to simply the catalytic domain); expressed in transfected cells; host or cells: Schizosaccharomyces pombe, PDE gene integrated in place of cgs2
T2 sequence (Q8VBU5 1-721): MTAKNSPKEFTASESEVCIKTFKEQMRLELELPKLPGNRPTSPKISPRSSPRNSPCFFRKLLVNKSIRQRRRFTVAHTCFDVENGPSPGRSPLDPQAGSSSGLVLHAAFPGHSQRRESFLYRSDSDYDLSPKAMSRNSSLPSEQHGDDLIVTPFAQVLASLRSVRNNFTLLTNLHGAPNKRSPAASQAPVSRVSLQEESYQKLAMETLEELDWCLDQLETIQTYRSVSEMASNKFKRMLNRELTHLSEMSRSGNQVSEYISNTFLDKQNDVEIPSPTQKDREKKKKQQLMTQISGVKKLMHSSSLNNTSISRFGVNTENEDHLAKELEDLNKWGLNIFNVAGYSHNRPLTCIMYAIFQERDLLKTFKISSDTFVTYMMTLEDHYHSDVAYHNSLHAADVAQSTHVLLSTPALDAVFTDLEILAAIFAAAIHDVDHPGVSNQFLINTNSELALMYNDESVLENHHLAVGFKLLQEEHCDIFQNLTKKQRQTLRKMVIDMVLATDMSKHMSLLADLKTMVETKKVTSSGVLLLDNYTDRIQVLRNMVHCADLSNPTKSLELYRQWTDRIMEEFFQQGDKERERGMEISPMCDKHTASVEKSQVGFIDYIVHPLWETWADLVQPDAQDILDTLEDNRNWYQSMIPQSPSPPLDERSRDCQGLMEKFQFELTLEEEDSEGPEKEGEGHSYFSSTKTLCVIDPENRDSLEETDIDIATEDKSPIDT
From the text: Values represent the average and SD of two or three independent experiments. […] The strains used are as in FIG. 5A, together with strain CHP1141 (PDE8A). Values represent the average and SD of two or three independent experiments.
Thus, PDE inhibition can be indirectly quantitated by measuring the effect of a compound on cAMP levels in target yeast strains.

[5] = system: U937 cells; experiment: TNF alpha release by LPS-treated U937 cells; format: cell-based; conditions: for TNF alpha, % vehicle control: 10 uM cmpd, 0 uM BC30
[6] = biological target: T3, PDE4D3 (Homo sapiens, UniProt Q08499); experiment: cAMP response in yeast strain expressing PDE4D3; format: cell-based
T3 construct: targets used in the assays are full-length proteins (as opposed to simply the catalytic domain); expressed in transfected cells; host or cells: Schizosaccharomyces pombe, PDE gene integrated in place of cgs2
T3 sequence (Q08499 1-673 isoform Q08499-2): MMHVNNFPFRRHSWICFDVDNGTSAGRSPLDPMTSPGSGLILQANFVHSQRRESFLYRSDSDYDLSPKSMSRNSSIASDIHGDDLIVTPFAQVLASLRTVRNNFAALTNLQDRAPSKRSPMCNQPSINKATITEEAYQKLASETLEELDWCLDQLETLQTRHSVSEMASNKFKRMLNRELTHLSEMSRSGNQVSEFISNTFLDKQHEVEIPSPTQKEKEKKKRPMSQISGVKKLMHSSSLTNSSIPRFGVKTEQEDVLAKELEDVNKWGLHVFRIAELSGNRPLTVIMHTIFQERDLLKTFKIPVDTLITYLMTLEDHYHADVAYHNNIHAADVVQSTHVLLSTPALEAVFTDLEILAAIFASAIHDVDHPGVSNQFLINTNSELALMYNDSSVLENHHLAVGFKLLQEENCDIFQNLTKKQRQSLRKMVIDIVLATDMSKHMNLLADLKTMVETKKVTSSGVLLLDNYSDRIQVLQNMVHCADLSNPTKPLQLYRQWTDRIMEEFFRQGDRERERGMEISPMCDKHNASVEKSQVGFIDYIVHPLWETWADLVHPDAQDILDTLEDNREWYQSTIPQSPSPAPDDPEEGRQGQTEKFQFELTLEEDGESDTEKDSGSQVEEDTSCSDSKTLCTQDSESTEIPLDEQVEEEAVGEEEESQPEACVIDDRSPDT

[7] = biological target: PDE7B (Homo sapiens, UniProt Q9NP56); experiment: in vitro enzyme assay, PDE7B catalytic domain from E. coli, hydrolysis of cAMP to AMP; format: biochemical; set-up: The PDE7B catalytic domain was expressed in and purified from E. coli; made in house; host or cells: E. coli
Chain of PDE7B (Q9NP56 97-420 limits assumed, species assumed): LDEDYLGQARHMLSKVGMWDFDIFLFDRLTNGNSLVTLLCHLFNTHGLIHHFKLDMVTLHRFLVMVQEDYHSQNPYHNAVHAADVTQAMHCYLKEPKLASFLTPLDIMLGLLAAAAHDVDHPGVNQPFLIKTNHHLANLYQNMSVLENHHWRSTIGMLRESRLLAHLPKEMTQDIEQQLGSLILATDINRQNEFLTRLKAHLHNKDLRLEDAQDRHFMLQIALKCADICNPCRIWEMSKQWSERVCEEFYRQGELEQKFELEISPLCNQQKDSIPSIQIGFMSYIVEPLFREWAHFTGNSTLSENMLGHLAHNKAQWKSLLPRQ
Procedure: The PDE7B catalytic domain was expressed in and purified from E. coli and tested for activity in an in vitro enzyme assay, measuring the hydrolysis of cAMP to AMP. Four dilutions of the enzyme preparation were tested at various compound concentrations (X axis). The percent of cAMP hydrolyzed is plotted on the Y axis.

Structure (SMILES): COC(=O)C1=C(C)N(c2ccccc2Cl)C(=O)/C1=C\c1cccs1 [Compound 27]
cAMP Response (% rolipram), 4D2 [3]: ND ND ND 11.00 ND % rolipram | cAMP Response (% rolipram), 4B3 [4]: 71.00 % rolipram | TNF alpha, % vehicle control ([5]; after 3 h.): 75.3% | TNF alpha, % vehicle control ([5]; after 20 h.): 78.3% | cAMP Response (% rolipram), 4D3 [6]: 8.00 % rolipram

Structure (SMILES): COC(=O)C1=C(C)N(C2CCCCC2)C(=O)/C1=C\c1cccs1 [Compound 22]
cAMP Response (% rolipram), 4D2 [3]: ND ND ND 34.00 ND % rolipram | cAMP Response (% rolipram), 4B3 [4]: 51.00 % rolipram | cAMP Response (% rolipram), 4D3 [6]: 12.00 % rolipram

Structure (SMILES): N#Cc1sc2sc(C#N)c(-c3ccco3)c2c1N [Compound 30]
cAMP Response, 4D2 ([3]; Table 16, unit not given): ND ND ND 7.5 ND | cAMP Response, 4B3 ([4]; Table 16, unit not given): 67 | TNF ([5]; 3 HOURS): 3317 pg/mL | TNF, % EtOH cntrl ([5]; 3 HOURS): 68.7% | TNF ([5]; 20 HOURS): 7481 pg/mL | TNF, % EtOH cntrl ([5]; 20 HOURS): 54.7% | IC50 ([7]; AC200 = [Compound] that doubles PDE activity, read-out: IC50 (or AC200), PDE7B): 12 µM

Second part, led by results:

EC50 ([1]; value marked (m), read-out: ED50 for 5FOA growth assays, PDE4B2 (m)): 1.7 µM
Structure (SMILES): CCC1CCc2c(sc3ncnc(N4CCOCC4)c23)C1 (stereo not drawn) [BC33]

EC50 [2]: > 200 µM | EC50 ([1]; read-out: ED50 for 5FOA growth assays, PDE4B2): > 200 µM
Structure (SMILES): Cc1sc2ncnc(Nc3ccccc3)c2c1C [BC64]

EC50 [2]: 140 µM
Structure (SMILES): CCN(CC)c1ncnc2sc3c(c12)CCCC3 [BC44]

PDE7B, 2 uM cpm ([7]; 2 uM compound): 15093 cpm
Structure (SMILES): Cc1c(C(=O)Nc2ccc(F)cc2F)sc2ncnc(N3CCC(C)CC3)c12 [BC58]
TNF alpha reduction, conclusion in words [5]: good PDE4 inhibitor activity
